Reference: patent US20240262832A1, “SMALL MOLECULE MODULATORS OF GLUCOCEREBROSIDASE ACTIVITY AND USES THEREOF” (Vanqua Bio, Inc., priority 2021, published 2024)

Each compound was assayed against T1, GCase (Homo sapiens, UniProt P04062) (assay: activation of GCase in a live cell PFB assay in HELA cells).
T1 construct: endogenous in cells; host or cells: HeLa cells
T1 sequence (P04062 40-536): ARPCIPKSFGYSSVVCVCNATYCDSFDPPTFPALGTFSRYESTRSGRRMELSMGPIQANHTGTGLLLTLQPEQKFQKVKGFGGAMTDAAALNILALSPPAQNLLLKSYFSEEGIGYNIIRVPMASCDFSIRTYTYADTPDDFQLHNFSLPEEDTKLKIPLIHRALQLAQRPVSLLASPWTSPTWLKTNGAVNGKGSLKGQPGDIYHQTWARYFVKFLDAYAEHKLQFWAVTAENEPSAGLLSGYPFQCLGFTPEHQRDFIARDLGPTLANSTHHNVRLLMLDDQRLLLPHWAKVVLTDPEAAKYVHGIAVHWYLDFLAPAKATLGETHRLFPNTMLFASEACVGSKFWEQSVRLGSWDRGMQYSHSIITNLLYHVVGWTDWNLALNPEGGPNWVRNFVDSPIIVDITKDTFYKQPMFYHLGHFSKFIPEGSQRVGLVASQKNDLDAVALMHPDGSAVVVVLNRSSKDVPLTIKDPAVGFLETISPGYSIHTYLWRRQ
Type: cell-based

| EC50 | SMILES |
| --- | --- |
| < 10 µM | CC1CCC(COc2cccnc2C(F)(F)F)CN1c1cnc2cnn(CC3COC3)c2n1 (stereo not drawn) [Compound 118, 6-(2-Methyl-5-(((2-(trifluoromethyl)pyridin-3-yl)oxy)methyl)piperidin-1-yl)-1-(oxetan-3-ylmethyl)-1H-pyrazolo[3,4-b]pyrazine] |
| 10 to 50 µM | O=C(C1C[C@@H]2C[C@@H](C1)CC(F)(F)C2)N1CCCC(COc2ccccc2)C1 (stereo partly drawn) [Compound 151] |
| 50 to 100 µM | COc1ccc(OCC2CCN(C(=O)c3cnc[nH]3)CC2)cc1 [Compound 463] |
| > 100 µM | COc1ccc(OCC2CCN(Cc3ccncc3C)CC2)cc1 [Compound 445] |
| 10 to 50 µM | O=C(Cc1csc(-c2ccccc2)n1)N1CCC(Oc2ncccc2C(F)(F)F)CC1 [Compound 401, 2-(2-Phenyl-1,3-thiazol-4-yl)-1-(4-{[3-(trifluoromethyl)pyridin-2-yl]oxy}piperidin-1-yl)ethan-1-one] |
| 10 to 50 µM | O=C(c1ccc2ccn(CC3COC3)c2c1)N1CCC[C@H](CCc2ccccc2C(F)(F)F)C1 [Compound 18, 1-[(oxetan-3-yl)methyl]-6-[(3S)-3-{2-[2-(trifluoromethyl)phenyl]ethyl}piperidine-1-carbonyl]-1H-indole] |
| > 100 µM | COc1ccc(OCC2CCN(C(=O)CN3CCCN(C)CC3)CC2)cc1 [Compound 474] |
| < 10 µM | Cn1c(-c2cccc(C(F)(F)F)n2)nc2nc(N3C[C@@H]4[C@@H](COc5cc(F)cc(F)c5)[C@@H]4C3)cnc21 [Compound 227, 5-((1R,5S,6r)-6-((3,5-difluorophenoxy)methyl)-3-azabicyclo[3.1.0]hexan-3-yl)-1-methyl-2-(6-(trifluoromethyl)pyridin-2-yl)-1H-imidazo[4,5-b]pyrazine] |
| 10 to 50 µM | COCCn1ncc2ncc(N3C[C@@H](C)C[C@@H](COc4cccnc4C(F)(F)F)C3)nc21 [Compound 230a, 1-(2-Methoxyethyl)-6-((3S,5R)-3-methyl-5-(((2-(trifluoromethyl)pyridin-3-yl)oxy)methyl)piperidin-1-yl)-1H-pyrazolo[3,4-b]pyrazine] |
| 10 to 50 µM | Cn1c(-c2ccccc2)cc2nc(C(=O)N3CCCC(COc4cccnc4C(F)(F)F)C3)cnc21 (stereo not drawn) [Compound 68, (5-methyl-6-phenyl-5H-pyrrolo[2,3-b]pyrazin-2-yl)(3-(((2-(trifluoromethyl)pyridin-3-yl)oxy)methyl)piperidin-1-yl)methanone] |
| 50 to 100 µM | O=C(c1ccn2c1CSCC2)N1CCCC(COc2ccccc2)C1 (stereo not drawn) [Compound 220] |
| < 10 µM | CC(=O)N1CCC(c2cncc(N3CCCC(COc4ccccc4C(F)(F)F)C3)n2)C(C)C1 (stereo not drawn) [Compound 112, 1-(3-methyl-4-(6-(3-((2-(trifluoromethyl)phenoxy)methyl)piperidin-1-yl)pyrazin-2-yl)piperidin-1-yl)ethan-1-one] |
| 10 to 50 µM | FC(F)(F)c1ccc2sc([C@H]3[C@@H]4CN(c5cnc6cnn(C7COC7)c6n5)C[C@@H]43)nc2c1 [Compound 290, 2-((1R,5S,6r)-3-(1-(Oxetan-3-yl)-1H-pyrazolo[3,4-b]pyrazin-6-yl)-3-azabicyclo[3.1.0]hexan-6-yl)-5-(trifluoromethyl)benzo[d]thiazole] |
| 50 to 100 µM | CCn1cc(-c2cccc(C(=O)N3CCC(OCc4ccccc4)CC3)c2)cn1 [Compound 476] |
| > 100 µM | FC(F)(F)c1ncccc1OC[C@@H]1[C@H]2CN(c3cnc4cnn(C5COC5)c4n3)C[C@@H]12 [Compound 98, 1-(Oxetan-3-yl)-6-((1R,5S,6r)-6-(((2-(trifluoromethyl)pyridin-3-yl)oxy)methyl)-3-azabicyclo[3.1.0]hexan-3-yl)-1H-pyrazolo[3,4-b]pyrazine] |
| 10 to 50 µM | O=C(c1ccc2c(c1)CCCC2)N1CCC(Oc2ccccc2)CC1 [Compound 407, 4-Phenoxy-1-(5,6,7,8-tetrahydronaphthalene-2-carbonyl)piperidine] |
| 10 to 50 µM | COc1ccc(OCC2CCN(c3cncc(C(=O)N4CCCC4)n3)CC2)cc1 [Compound 437] |
| > 100 µM | COc1ccc(OCC2CCN(CCCn3ccnc3C)CC2)cc1 [Compound 454] |
